# According to ChEMBL document CHEMBL1150951, “New mycalolides from the marine sponge Mycale magellanica and their interconversion” (J Nat Prod, 1998):
# Tested on: L1210
# Experiment: Cytotoxicity against mouse L1210 cells
# Format: functional, cell-based
row,SMILES,IC50 [mg/L]
1,CO[C@H]1C/C=C/c2nc(co2)-c2nc(co2)-c2nc(co2)[C@@H](OC)[C@@H](C)C(=O)/C=C/C[C@H](O)CC(=O)O[C@@H](C[C@H](OC)[C@@H](C)CCC(=O)[C@@H](C)[C@H](O)[C@H](C)/C=C/N(C)C=O)[C@@H]1C [32-HYDROXYMYCALOLIDE A],0.013
2,COC(CO)C(=O)O[C@H](CC[C@H](C)[C@H](C[C@@H]1OC(=O)C[C@@H](O)C/C=C/C(=O)[C@H](C)[C@H](OC)c2coc(n2)-c2coc(n2)-c2coc(n2)/C=C/C[C@H](OC)[C@H]1C)OC)[C@H](C)[C@H](OC(C)=O)[C@H](C)/C=C/N(C)C=O (stereo partly drawn) [38-HYDROXYMYCALOLIDE B],0.015
3,CO[C@H]1C/C=C/c2nc(co2)-c2nc(co2)-c2nc(co2)[C@@H](OC)[C@@H](C)C(=O)/C=C/C[C@H](O)CC(=O)O[C@@H](C[C@H](OC)[C@@H](C)CCC(O)[C@@H](C)[C@H](OC(C)=O)[C@H](C)/C=C/N(C)C=O)[C@@H]1C (stereo partly drawn) [30-HYDROXYMYCALOLIDE A],0.019
